# Experimental data: patent EP0157361A2, “Analysis method and means for detecting esterolytic and or proteolytic enzymes” (MILES INC., priority 1984, dated 1985)
# Entries after “also recorded” stand apart in the source; their conditions may differ.
# How the values were obtained:
# Type in all cases: biochemical
# [1] = system: Leukozyten-Enzyme; test: Acceleration of enzymatic cleavage of N-Tosyl-L-alanin-indoxylester by leukocytes (photometric, 360 nm); conditions: for relative Spaltungsgeschwindigkeit: 0.1 M Tris-HCl buffer pH 8.8, 360 nm; for rel.Geschwindigk.der Enzymreaktion, bezogen auf Decanol (0,125 µl/Test) = 1: 50 µl N-Methylpyrrolidon, SDS 10 µg/Test, Tris-HCl pH 8.8
# Description: (§1) Zu 2.25 ml des betreffenden Puffers fügte man je nach Substrat 50 - 250 µl N-Methylpyrrolidon als Lösungsvermittler und ergänzte das Volumen der Lösung mit Puffer auf 2.5 ml. Dann wurden 5 µl einer Lösung von 5 - 100 mg n-Undecanol in 1 ml N-Methylpyrrolidon sowie 5 µl einer Lösung von 2 mg Natriumdodecylsulfat (SDS) bzw. 4 mg der anderen Detergentien in 1 ml Wasser oder N-Methylpyrrolidon zu der Reaktionsmischung zugegeben. Nach gutem Durchmischen wurden 5 µl einer 10-1 molaren Substratlösung in N-Methylpyrrolidon, Dimethylformamid oder Dimethylsulfoxid in die Reaktionslösung gegeben und nach der Zugabe der Leukozytensuspension der Extinktionsanstieg bei der angegebenen Wellenlänge kontinuierlich verfolgt. Die Spontanhydrolyse des Substrats wird in einem Paralellansatz ohne Leukozytenzugabe anhand des Extinktionsanstiegs bestimmt.
# (§2) Für die Bestimmung der Umsetzungsgeschwindigkeit wird der in der Enzymreaktion erhaltene Extinktionsanstieg um den für die Spontanhydrolyse ermittelten Betrag vermindert. Absolutwerte für die Substratspaltung (Mol. Min.^-1) können aus den Extinktionsdifferenzen mit Hilfe der molaren Extinktionskoeffizienten errechnet werden.
# Beschleunigende Wirkung von Alkanolen auf die enzymatische Spaltung von N-Tosyl-L-alanin-indoxylester mit Leukozyten in 0.1 M Tris-(hydroxymethyl)-aminomethan-Salzsäure-Puffer pH 8.8 unter Zusatz von SDS bzw. Polylysin mit einem mittleren Molekulargewicht von 14 000 (Messung bei 360 nm).
# Konzentrationsabhängigkeit der beschleunigenden Wirkung von n-Undecanol auf die Spaltung von N-Tosyl-L-alanin-indoxylester mit Leukozyten in Gegenwart von 50 µl N-Methylpyrrolidon/Testansatz und 10 µg/Test SDS in 0.1 M Tris-(hydroxymethyl)-aminomethan-Salzsäurepuffer (pH 8.8).
# [2] = system: Leukozyten-Enzyme; test: Acceleration of cleavage of N-Tosyl-L-alanin-3-hydroxy-5-phenylpyrrolester by leukocytes (photometric, 330 nm); conditions: 250 µl N-Methylpyrrolidon
# Description: as §1, §2
# Beschleunigung der Spaltung von N-Tosyl-L-alanin-3-hydroxy-5-phenylpyrrolester mit Leukozyten in 0.1 M Tris-(hydroxymethyl)-aminomethan-Salzsäurepuffer (pH 8.8) in Gegenwart von 250 µl N-Methylpyrrolidon durch Zusätze von Aktivatoren und Detergentien.
# Beschleunigung der Spaltung von N-Tosyl-L-alanin-3-hydroxy-5-phenylpyrrolester mit Leukozyten in diversen 0.1 M. Puffern (pH 8.4) unter Zusatz von 250 µl N-Methylpyrrolidon und Aktivatoren sowie Detergentien.
# [3] = system: Leukozyten-Enzyme; test: Acceleration of cleavage of N-Tosyl-L-alanin-5-hydroxy-1,2-benzisothiazolylester by leukocytes (photometric, 325 nm); conditions: Aktivator 125 µg/Test, Tris-HCl pH 8.4, 100 µl N-Methylpyrrolidon
# Description: as §1, §2
# Beschleunigung der Spaltung von N-Tosyl-L-alanin-5-hydroxy-1,2-benzisothiazolylester mit Leukozyten in 0.1 M Tris-(hydroxymethyl)-aminomethan-Salzsäurepuffer (pH 8.4) in Gegenwart von 100 µl N-Methylpyrrolidon durch Zusätze von Aktivatoren und Detergentien.
# [4] = system: Leukozyten-Enzyme; test: Activation of leukocyte enzymes, general statement in the description; conditions: statement in words; compared with Hexanol, Heptanol, Octanol, Nonanol, Decanol, Dodecanol, Tridecanol of EP-A 14 929
# Description: as §1, §2
# [5] = Puffer Borat 0.1 M pH 8.4, Aktivator 0.125 µl bzw. 125 µg je Test, SDS 10 µg/Test
# [6] = Detergens Poly-L-Lys (mean MW 14 000) 20 µg/Test
# [7] = Aktivator 125 µg/Test, SDS 10 µg/Test, Tris-HCl pH 8.8
# [8] = Aktivator 125 µg/Test, Zephirol 20 µg/Test, Tris-HCl pH 8.8
# [9] = Puffer Borat 0.1 M pH 8.4, Aktivator 0.125 µl bzw. 125 µg je Test, no detergent
# [10] = Puffer Carbonat-Hydrogencarbonat 0.1 M pH 8.4, Aktivator 0.125 µl bzw. 125 µg je Test, SDS 10 µg/Test
# [11] = Puffer Phosphat 0.1 M pH 8.4, Aktivator 0.125 µl bzw. 125 µg je Test, SDS 10 µg/Test
# [12] = Puffer Tris 0.1 M pH 8.4, Aktivator 0.125 µl bzw. 125 µg je Test, BDTA 20 µg/Test
# [13] = Puffer Tris 0.1 M pH 8.4, Aktivator 0.125 µl bzw. 125 µg je Test, Poly-L-Arg (40000) 20 µg/Test
# [14] = Puffer Tris 0.1 M pH 8.4, Aktivator 0.125 µl bzw. 125 µg je Test, SDS 10 µg/Test
# [15] = Puffer Tris 0.1 M pH 8.4, Aktivator 0.125 µl bzw. 125 µg je Test, no detergent
SMILES,relative Spaltungsgeschwindigkeit ([1]; Detergens SDS 10 µg/Test),"relative Spaltungsgeschwindigkeit [2, 5]","relative Spaltungsgeschwindigkeit [1, 6]",relative Spaltungsgeschwindigkeit ([3]; Poly-L-Lys(14000) 20 µg/Test),relative Spaltungsgeschwindigkeit ([3]; Poly-L-Orn(30000) 20 µg/Test),relative Spaltungsgeschwindigkeit ([3]; SDS 10 µg/Test),relative Spaltungsgeschwindigkeit ([3]; no detergent),"relative Spaltungsgeschwindigkeit [2, 7]","relative Spaltungsgeschwindigkeit [2, 8]","relative Spaltungsgeschwindigkeit [2, 9]","relative Spaltungsgeschwindigkeit [2, 10]","relative Spaltungsgeschwindigkeit [2, 11]","relative Spaltungsgeschwindigkeit [2, 12]","relative Spaltungsgeschwindigkeit [2, 13]","relative Spaltungsgeschwindigkeit [2, 14]","relative Spaltungsgeschwindigkeit [2, 15]",also measured
CCCCCCCCCCCCO [n-Dodecanol],0.55,9.0,,,,,,,,,,,,,,,
"CCCCCCCCCCCCOS(=O)(=O)O [SDS, Natriumdodecylsulfat]",,,,,,,,,,,,,,,,,"relative Spaltungsgeschwindigkeit ([2]; Puffer Borat 0.1 M pH 8.4, no activator, detergent SDS alone 10 µg/Test): 2.8; relative Spaltungsgeschwindigkeit ([2]; Puffer Tris 0.1 M pH 8.4, no activator, detergent SDS alone 10 µg/Test): 0.8"
CCCCCCCCCCCO [n-Undecanol],1.85,15.2,6.5,8.2,7.4,2.5,3.1,3.3,2.6,5.6,6.6,17.3,3.55,6.55,2.1,1.7,"rel.Geschwindigk.der Enzymreaktion, bezogen auf Decanol (0,125 µl/Test) = 1 ([1]; 0,2 µl Undecanol in test solution): 2,1; rel.Geschwindigk.der Enzymreaktion, bezogen auf Decanol (0,125 µl/Test) = 1 ([1]; 0,5 µl Undecanol in test solution): 3,1; rel.Geschwindigk.der Enzymreaktion, bezogen auf Decanol (0,125 µl/Test) = 1 ([1]; 0,25 µl Undecanol in test solution): 3,2; rel.Geschwindigk.der Enzymreaktion, bezogen auf Decanol (0,125 µl/Test) = 1 ([1]; 0,025 µl Undecanol in test solution): 0,65; rel.Geschwindigk.der Enzymreaktion, bezogen auf Decanol (0,125 µl/Test) = 1 ([1]; 0,075 µl Undecanol in test solution): 1,5; rel.Geschwindigk.der Enzymreaktion, bezogen auf Decanol (0,125 µl/Test) = 1 ([1]; 0,125 µl Undecanol in test solution): 1,75; Aktivierung der Leukozyten-Enzyme [4]: stark aktiviert; also recorded: alle vorgenannten Alkohole in der Aktivierung der Leukozyten- Enzyme übertrifft"
CCCCCCCCCO [n-Nonanol],,3.0,,,,,,,,,,,,,0.6,,
CCCCCCCCCCCCCO [n-Tridecanol],0.75,,,,,,,,,,,,,,,,
CCCCCCCCCCO [n-Decanol],1,9.0,3.2,4.25,3.8,1.0,1.9,1.0,1.27,4.9,5.6,12.0,1.05,3.7,1,0.9,"relative Spaltungsgeschwindigkeit ([2]; Puffer Borat 0.1 M pH 8.4, Aktivator 0.125 µl bzw. 125 µg je Test, Poly-DL-Lys(37000) 20 µg/Test): 3.15"
